Literature values in CN101129366A, “一种尼莫地平药物组合物及其制备方法” (Beijing Zhonghaikang Medical Technology Development Co Ltd, priority 2007, dated 2008).

Conditions: drug substance

solubility in acetone and chloroform (acetone, chloroform): 易溶 | solubility in ethanol (ethanol): 溶解 | solubility in diethyl ether (ether): 微溶 | solubility in water (water): 不溶
SMILES: COCCOC(=O)C1=C(C)NC(C)=C(C(=O)OC(C)C)C1c1cccc([N+](=O)[O-])c1 (stereo not shown) [尼莫地平]
